Laboratory results from patent US20170166598A1, “HETEROARYL COMPOUNDS FOR KINASE INHIBITION” (ARIAD PHARMACEUTICALS, INC., priority 2014, published 2017).

Legend:
Type in all cases: cell-based
[1] = target: T1, human EGFR exon 20 insertion NPG (H773_V774insNPG) (Homo sapiens, UniProt P00533, INS772GNP); assay: Ba/F3-EGFR-Exon20-NPG cell anti-proliferative assay (CellTiter 96 MTS, 72 h); conditions: Ba/F3-EGFR-Exon20-NPG cells
T1 construct: expressed in transfected cells; host or cells: Ba/F3 (murine pro-B) cells transduced with lentivirus from pLVX-IRES puro
T1 sequence (P00533 with tags, fused parts or gaps INS772GNP): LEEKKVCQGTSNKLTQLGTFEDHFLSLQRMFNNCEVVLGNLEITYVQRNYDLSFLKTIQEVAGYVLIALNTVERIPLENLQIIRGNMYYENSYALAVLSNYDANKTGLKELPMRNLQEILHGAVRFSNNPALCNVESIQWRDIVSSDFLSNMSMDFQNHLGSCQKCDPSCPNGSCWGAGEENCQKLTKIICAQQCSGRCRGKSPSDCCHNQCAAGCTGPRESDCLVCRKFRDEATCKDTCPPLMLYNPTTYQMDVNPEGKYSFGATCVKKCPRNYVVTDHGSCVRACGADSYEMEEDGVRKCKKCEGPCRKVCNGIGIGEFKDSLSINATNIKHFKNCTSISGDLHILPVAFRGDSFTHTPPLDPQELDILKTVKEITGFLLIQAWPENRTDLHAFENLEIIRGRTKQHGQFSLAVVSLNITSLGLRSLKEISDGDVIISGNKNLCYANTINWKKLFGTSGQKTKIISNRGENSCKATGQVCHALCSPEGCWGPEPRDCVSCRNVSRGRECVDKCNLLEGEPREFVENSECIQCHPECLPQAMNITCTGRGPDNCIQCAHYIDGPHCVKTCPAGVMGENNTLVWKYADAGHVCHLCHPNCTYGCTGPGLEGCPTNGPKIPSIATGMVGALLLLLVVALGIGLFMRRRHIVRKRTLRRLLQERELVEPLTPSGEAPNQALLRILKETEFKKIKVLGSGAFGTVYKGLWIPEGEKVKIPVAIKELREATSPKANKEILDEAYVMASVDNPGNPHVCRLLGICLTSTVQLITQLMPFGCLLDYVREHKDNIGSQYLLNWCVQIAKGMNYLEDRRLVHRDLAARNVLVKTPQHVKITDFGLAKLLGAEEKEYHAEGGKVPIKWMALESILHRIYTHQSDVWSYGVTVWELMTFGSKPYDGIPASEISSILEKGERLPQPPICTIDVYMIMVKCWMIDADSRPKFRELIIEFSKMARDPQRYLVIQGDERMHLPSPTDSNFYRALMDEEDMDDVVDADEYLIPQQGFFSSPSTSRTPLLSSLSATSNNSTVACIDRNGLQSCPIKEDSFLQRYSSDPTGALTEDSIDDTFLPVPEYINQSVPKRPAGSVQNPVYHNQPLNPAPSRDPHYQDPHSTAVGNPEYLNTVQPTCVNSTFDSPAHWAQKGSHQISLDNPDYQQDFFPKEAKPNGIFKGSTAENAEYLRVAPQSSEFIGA
Outline: (§1)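 Viable-cell readout used absorbance at 490 nm of MTS-derived formazan, 2 h after reagent addition, following 72 h compound treatment at 37 °C, 5% CO2. Cells: puromycin-selected, IL-3-depleted Ba/F3 expressing EGFR exon 20 ASV or NPG; dosing 4-fold series from 10,000 nM.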

[2] = target: T2, human EGFR exon 20 insertion ASV (V769_D770insASV) (Homo sapiens, UniProt P00533, INS769ASV); assay: Ba/F3-EGFR-Exon20-ASV cell anti-proliferative assay (CellTiter 96 MTS, 72 h); conditions: Ba/F3-EGFR-Exon20-ASV cells
T2 construct: expressed in transfected cells; host or cells: Ba/F3 (murine pro-B) cells transduced with lentivirus from pLVX-IRES puro
T2 sequence (P00533 with tags, fused parts or gaps INS769ASV): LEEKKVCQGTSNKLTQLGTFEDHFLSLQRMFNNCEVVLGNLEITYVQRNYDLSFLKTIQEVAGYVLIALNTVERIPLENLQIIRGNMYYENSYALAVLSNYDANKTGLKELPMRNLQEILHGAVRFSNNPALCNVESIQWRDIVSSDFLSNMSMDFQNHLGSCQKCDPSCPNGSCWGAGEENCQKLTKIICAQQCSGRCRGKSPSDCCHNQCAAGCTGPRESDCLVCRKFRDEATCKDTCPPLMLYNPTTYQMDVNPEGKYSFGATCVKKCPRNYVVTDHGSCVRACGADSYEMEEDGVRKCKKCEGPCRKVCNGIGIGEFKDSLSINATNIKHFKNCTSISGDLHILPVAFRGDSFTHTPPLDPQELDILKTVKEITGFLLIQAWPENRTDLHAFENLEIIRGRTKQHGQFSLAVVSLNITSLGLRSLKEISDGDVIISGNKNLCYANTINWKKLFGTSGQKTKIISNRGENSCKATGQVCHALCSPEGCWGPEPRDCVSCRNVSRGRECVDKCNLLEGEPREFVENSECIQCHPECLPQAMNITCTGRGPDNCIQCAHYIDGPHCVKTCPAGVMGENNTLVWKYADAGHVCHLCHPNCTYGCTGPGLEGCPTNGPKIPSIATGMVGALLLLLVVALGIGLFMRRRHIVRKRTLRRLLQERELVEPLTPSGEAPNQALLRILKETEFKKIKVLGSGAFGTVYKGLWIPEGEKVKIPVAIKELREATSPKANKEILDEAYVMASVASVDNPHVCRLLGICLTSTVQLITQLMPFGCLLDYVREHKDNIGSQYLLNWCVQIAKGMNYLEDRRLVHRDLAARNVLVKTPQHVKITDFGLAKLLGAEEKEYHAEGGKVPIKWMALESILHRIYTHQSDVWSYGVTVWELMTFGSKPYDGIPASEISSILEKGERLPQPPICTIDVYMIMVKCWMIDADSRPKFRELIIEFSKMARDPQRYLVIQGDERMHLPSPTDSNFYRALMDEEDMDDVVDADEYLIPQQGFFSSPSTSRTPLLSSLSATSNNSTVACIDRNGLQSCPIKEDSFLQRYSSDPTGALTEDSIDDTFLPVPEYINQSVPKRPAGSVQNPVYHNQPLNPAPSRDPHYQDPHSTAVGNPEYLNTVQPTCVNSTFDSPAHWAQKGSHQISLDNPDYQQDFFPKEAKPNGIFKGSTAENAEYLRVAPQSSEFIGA
Outline: as §1

[3] = target: T3, human EGFR E746-A750 deletion and T790M Mutation (Homo sapiens, UniProt P00533, DEL746-750/T790M); assay: Ba/F3-EGFR-Del/T790M cell anti-proliferative assay (CellTiter 96 MTS, 72 h); conditions: Ba/F3-EGFR-Del/T790M cells
T3 construct: expressed in transfected cells; host or cells: Ba/F3 (murine pro-B) cells transduced with lentivirus from pLVX-IRES puro
T3 sequence (P00533 with tags, fused parts or gaps DEL746-750/T790M): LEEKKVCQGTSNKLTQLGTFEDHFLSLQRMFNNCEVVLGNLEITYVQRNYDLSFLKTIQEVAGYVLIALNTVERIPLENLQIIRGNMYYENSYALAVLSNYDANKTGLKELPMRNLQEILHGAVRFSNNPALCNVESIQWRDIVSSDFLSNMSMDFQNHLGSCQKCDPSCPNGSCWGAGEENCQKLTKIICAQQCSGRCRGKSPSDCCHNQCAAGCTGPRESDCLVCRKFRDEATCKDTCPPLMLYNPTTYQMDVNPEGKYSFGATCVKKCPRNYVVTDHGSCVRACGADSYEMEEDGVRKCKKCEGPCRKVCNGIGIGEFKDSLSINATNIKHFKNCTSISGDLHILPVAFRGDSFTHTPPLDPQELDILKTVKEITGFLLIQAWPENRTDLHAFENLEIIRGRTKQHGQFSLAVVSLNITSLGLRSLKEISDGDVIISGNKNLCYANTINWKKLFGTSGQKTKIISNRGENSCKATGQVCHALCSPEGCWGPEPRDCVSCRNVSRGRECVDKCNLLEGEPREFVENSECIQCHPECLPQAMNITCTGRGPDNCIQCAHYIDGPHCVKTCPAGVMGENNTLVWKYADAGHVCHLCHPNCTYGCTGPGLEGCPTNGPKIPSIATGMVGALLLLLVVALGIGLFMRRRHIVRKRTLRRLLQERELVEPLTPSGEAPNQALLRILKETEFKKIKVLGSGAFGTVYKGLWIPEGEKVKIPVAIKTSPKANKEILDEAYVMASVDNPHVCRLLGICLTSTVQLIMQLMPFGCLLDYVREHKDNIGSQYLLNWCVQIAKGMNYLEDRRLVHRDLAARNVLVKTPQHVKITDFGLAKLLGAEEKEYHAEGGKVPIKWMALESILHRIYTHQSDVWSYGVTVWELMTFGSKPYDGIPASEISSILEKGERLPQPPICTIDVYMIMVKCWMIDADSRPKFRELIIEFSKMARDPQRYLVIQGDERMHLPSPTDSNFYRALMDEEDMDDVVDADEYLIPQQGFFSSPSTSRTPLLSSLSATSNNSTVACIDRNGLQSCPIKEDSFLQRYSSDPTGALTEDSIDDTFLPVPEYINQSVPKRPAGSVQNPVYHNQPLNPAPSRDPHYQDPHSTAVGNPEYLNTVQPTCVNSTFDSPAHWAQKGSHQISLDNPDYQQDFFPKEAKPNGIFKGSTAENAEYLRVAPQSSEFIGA
Outline: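 Compound exposure: 72 h, 37 °C, 4-fold series topping at 10,000 nM. Target cells are Ba/F3 transduced with EGFR exon 19 deletion plus T790M, selected by puromycin and IL-3 withdrawal. Viable cell number inferred from MTS metabolic conversion, A490 read 2 h after reagent addition.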

[4] = target: T4, Her2 exon 20 YVMA insertion (A775_G776ins YVMA) (Homo sapiens, UniProt P04626, INS775YVMA); assay: Ba/F3-Her2 Exon20 YVMA cell anti-proliferative assay (CellTiter 96 MTS, 72 h); conditions: Ba/F3-Her2 Exon20 YVMA cells
T4 construct: expressed in transfected cells; host or cells: Ba/F3 (murine pro-B) cells transduced with lentivirus from pLVX-IRES puro
T4 sequence (P04626 with tags, fused parts or gaps INS775YVMA): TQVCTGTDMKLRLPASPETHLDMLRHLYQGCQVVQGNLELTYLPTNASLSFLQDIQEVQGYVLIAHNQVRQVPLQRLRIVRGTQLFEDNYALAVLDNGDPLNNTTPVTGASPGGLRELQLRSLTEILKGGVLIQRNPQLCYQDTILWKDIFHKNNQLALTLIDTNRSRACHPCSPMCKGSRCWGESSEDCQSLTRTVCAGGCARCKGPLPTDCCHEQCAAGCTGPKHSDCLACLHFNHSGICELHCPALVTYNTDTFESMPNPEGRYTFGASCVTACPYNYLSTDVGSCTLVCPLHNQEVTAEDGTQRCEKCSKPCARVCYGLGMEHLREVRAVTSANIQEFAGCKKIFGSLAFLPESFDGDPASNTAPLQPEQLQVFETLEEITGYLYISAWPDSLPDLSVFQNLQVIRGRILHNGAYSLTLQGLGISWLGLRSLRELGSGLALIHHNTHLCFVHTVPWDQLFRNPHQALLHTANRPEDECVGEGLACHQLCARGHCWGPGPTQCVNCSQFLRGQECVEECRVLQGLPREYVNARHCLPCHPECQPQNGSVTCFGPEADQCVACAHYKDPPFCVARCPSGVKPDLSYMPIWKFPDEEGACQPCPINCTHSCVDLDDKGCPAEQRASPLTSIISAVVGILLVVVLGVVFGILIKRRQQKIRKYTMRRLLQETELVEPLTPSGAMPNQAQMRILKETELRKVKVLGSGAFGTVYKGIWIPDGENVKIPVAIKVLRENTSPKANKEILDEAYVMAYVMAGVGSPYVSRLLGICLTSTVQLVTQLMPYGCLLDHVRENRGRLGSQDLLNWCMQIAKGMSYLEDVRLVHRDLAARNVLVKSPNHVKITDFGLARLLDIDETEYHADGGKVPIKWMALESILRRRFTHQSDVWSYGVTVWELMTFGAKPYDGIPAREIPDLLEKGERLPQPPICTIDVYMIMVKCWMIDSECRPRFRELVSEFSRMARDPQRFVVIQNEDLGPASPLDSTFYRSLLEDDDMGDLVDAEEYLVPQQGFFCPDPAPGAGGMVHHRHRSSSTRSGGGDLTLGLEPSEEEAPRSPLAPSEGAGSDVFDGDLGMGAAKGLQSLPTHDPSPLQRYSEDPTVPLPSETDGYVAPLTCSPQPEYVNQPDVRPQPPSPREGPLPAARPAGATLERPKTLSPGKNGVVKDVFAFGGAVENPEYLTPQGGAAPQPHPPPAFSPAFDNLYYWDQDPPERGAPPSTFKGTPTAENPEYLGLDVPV
Outline: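 Anti-proliferation: compound series (top 10,000 nM, 4-fold steps) was applied to Ba/F3-Her2 Exon20 YVMA cells grown without IL-3 for 72 h. Viability was read colorimetrically (CellTiter 96 Aqueous One, A490, 2 h reagent incubation).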

Row | SMILES | IC50 [1] | IC50 [2] | IC50 [4] | EGFR exon 19 deletion and exon 20 T790M mutation IC50 [3]
1 | C=CC(=O)Nc1cc(Nc2ncc(C#N)c(-c3cn4c5c(cccc35)OCC4)n2)c(OC)cc1N1CC[C@@H](N(C)C)C1 [Example 5, (R)-N-(5-((5-cyano-4-(2,3-dihydro-[1,4]oxazino[2,3,4-hi]indol-6-yl)pyrimidin-2-yl)amino)-2-(3-(dimethylamino)pyrrolidin-1-yl)-4-methoxyphenyl)acrylamide] | < 100 nM | < 100 nM | 100 to 500 nM | A (IC50 value for the indicated mutant below about 100 nM)
2 | C=CC(=O)Nc1cc(Nc2ncc(-c3nc(C)no3)c(-c3cn4c5c(cccc35)CCC4)n2)c(OC)cc1N(C)CCN(C)C [Example 86] | < 100 nM | < 100 nM | < 100 nM | A (IC50 value for the indicated mutant below about 100 nM)
3 | C=CC(=O)Nc1cc(Nc2ncc(C(=O)NC)c(-c3nn4c5c(cccc35)OCC4)n2)c(OC)cc1N(C)CCN(C)C [Example 67] | > 1000 nM | > 1000 nM | > 1000 nM | D (IC50 value for the indicated mutant greater than about 1 μM)
4 | C=CC(=O)Nc1cc(Nc2ncc(-c3cnn(C)c3C)c(-c3cn4c5c(cccc35)CCC4)n2)c(OC)cc1N(C)CCN(C)C [Example 102] | < 100 nM | < 100 nM | < 100 nM | A (IC50 value for the indicated mutant below about 100 nM)
5 | C=CC(=O)Nc1cc(Nc2ncc(/C=C/C#N)c(-c3cn4c5c(cccc35)CCC4)n2)c(OC)cc1N(C)CCN(C)C [Example 42, (E)-N-(5-((5-(2-cyanovinyl)-4-(5,6-dihydro-4H-pyrrolo[3,2,1-ij]quinolin-1-yl)pyrimidin-2-yl)amino)-2-((2-(dimethylamino)ethyl)(methyl)amino)-4-methoxyphenyl)acrylamide] | < 100 nM | < 100 nM | < 100 nM | A (IC50 value for the indicated mutant below about 100 nM)
6 | C=CC(=O)Nc1cc(Nc2ncc(C#N)c(-c3cn4c5c(cccc35)N(C)C(=O)C4)n2)c(OC)cc1N1CC[C@@H](N(C)C)C1 [Example 55, (R)-N-(5-((5-cyano-4-(1-methyl-2-oxo-2,3-dihydro-1H-pyrrolo[1,2,3-de]quinoxalin-6-yl)pyrimidin-2-yl)amino)-2-(3-(dimethylamino)pyrrolidin-1-yl)-4-methoxyphenyl)acrylamide] | < 100 nM | 100 to 500 nM | 100 to 500 nM | A (IC50 value for the indicated mutant below about 100 nM)
7 | C=CC(=O)Nc1cc(Nc2ncc(CCC(C)O)c(-c3cn4c5c(cccc35)CCC4)n2)c(OC)cc1N(C)CCN(C)C (stereo not shown) [Example 32, N-(5-((4-(5,6-dihydro-4H-pyrrolo[3,2,1-ij]quinolin-1-yl)-5-(3-hydroxybutyl)pyrimidin-2-yl)amino)-2-((2-(dimethylamino)ethyl)(methyl)amino)-4-methoxyphenyl)acrylamide] | < 100 nM | < 100 nM | 100 to 500 nM | A (IC50 value for the indicated mutant below about 100 nM)
8 | C=CC(=O)Nc1cc(Nc2ncc(-c3nnco3)c(-c3cn4c5c(cccc35)CCC4)n2)c(OC)cc1N(C)CCN(C)C [Example 71, N-(5-((4-(5,6-dihydro-4H-pyrrolo[3,2,1-ij]quinolin-1-yl)-5-(1,3,4-oxadiazol-2-yl)pyrimidin-2-yl)amino)-2-((2-(dimethylamino)ethyl)(methyl)amino)-4-methoxyphenyl)acrylamide] | < 100 nM | < 100 nM | < 100 nM | A (IC50 value for the indicated mutant below about 100 nM)
9 | C=CC(=O)Nc1cc(Nc2ncc(C#N)c(-c3cn4c5c(cccc35)N(C)CC4)n2)c(OC)cc1N(C)CCN(C)C [Example 56, N-(5-((5-cyano-4-(1-methyl-2,3-dihydro-1H-pyrrolo[1,2,3-de]quinoxalin-6-yl)pyrimidin-2-yl)amino)-2-((2-(dimethylamino)ethyl)-(methyl)amino)-4-methoxyphenyl)acrylamide] | 100 to 500 nM | 500 to 1000 nM | 500 to 1000 nM | A (IC50 value for the indicated mutant below about 100 nM)
10 | C=CC(=O)Nc1cc(Nc2ncc(C(=O)OCC)c(-c3cn4c5c(cccc35)CCC4)n2)c(OC)cc1N(C)CCN(C)C [Example 69, ethyl 2-((5-acrylamido-4-((2-(dimethylamino)ethyl)(methyl)amino)-2-methoxyphenyl)amino)-4-(5,6-dihydro-4H-pyrrolo[3,2,1-ij]quinolin-1-yl)pyrimidine-5-carboxylate] | < 100 nM | < 100 nM | < 100 nM | A (IC50 value for the indicated mutant below about 100 nM)
11 | C=CC(=O)Nc1cc(Nc2ncc(-c3ncccn3)c(-c3cn4c5c(cccc35)CCC4)n2)c(OC)cc1N(C)CCN(C)C [Example 108] | < 100 nM | 100 to 500 nM | > 1000 nM | B (IC50 value for the indicated mutant between about 100 to about 500 nM)
12 | C=CC(=O)Nc1cc(Nc2ncc(CO)c(-c3cn4c5c(cccc35)CCC4)n2)c(OC)cc1N(C)CCN(C)C [Example 70, N-(5-((4-(5,6-dihydro-4H-pyrrolo[3,2,1-ij]quinolin-1-yl)-5-(hydroxymethyl)pyrimidin-2-yl)amino)-2-((2-(dimethylamino)ethyl)-(methyl)amino)-4-methoxyphenyl)acrylamide] | < 100 nM | < 100 nM | 100 to 500 nM | A (IC50 value for the indicated mutant below about 100 nM)
13 | C=CC(=O)Nc1cc(Nc2ncc(C(CC)OC)c(-c3cn4c5c(cccc35)CCC4)n2)c(OC)cc1N(C)CCN(C)C (stereo not shown) [Example 87] | < 100 nM | 100 to 500 nM | 100 to 500 nM | A (IC50 value for the indicated mutant below about 100 nM)

Further lines, with some results ahead:

Row | IC50 [1] | IC50 [2] | IC50 [4] | SMILES | EGFR exon 19 deletion and exon 20 T790M mutation IC50 [3]
14 | < 100 nM | < 100 nM | < 100 nM | C=CC(=O)Nc1cc(Nc2ncc(-c3cc(C)nn3C)c(-c3cn4c5c(cccc35)CCC4)n2)c(OC)cc1N(C)CCN(C)C [Example 101] | A (IC50 value for the indicated mutant below about 100 nM)
15 | < 100 nM | < 100 nM | 100 to 500 nM | C=CC(=O)Nc1cc(Nc2ncc(OCC(C)O)c(-c3cn4c5c(cccc35)CCC4)n2)c(OC)cc1N(C)CCN(C)C (stereo not shown) [Example 51, N-(5-((4-(5,6-dihydro-4H-pyrrolo[3,2,1-ij]quinolin-1-yl)-5-(2-hydroxypropoxy)pyrimidin-2-yl)amino)-2-((2-(dimethylamino)ethyl)(methyl)amino)-4-methoxyphenyl)acrylamide] | A (IC50 value for the indicated mutant below about 100 nM)
16 | < 100 nM | < 100 nM | < 100 nM | C=CC(=O)Nc1cc(Nc2ncc(C#N)c(-c3cn4c5c(cccc35)N(C)C(=O)C4)n2)c(OC)cc1N(C)CCN(C)C [Example 52, N-(5-((5-cyano-4-(1-methyl-2-oxo-2,3-dihydro-1H-pyrrolo[1,2,3-de]quinoxalin-6-yl)pyrimidin-2-yl)amino)-2-((2-(dimethylamino)ethyl)(methyl)amino)-4-methoxyphenyl)acrylamide] | A (IC50 value for the indicated mutant below about 100 nM)
17 | 100 to 500 nM | 500 to 1000 nM | > 1000 nM | COc1cc(F)c(NC(=O)/C=C/CN(C)C)cc1Nc1ncc(Cl)c(-c2cn3c4c(cccc24)OCC3)n1 [Example 82, (E)-N-(5-((5-chloro-4-(2,3-dihydro-[1,4]oxazino[2,3,4-hi]indol-6-yl)pyrimidin-2-yl)amino)-2-fluoro-4-methoxyphenyl)-4-(dimethylamino)but-2-enamide] | A (IC50 value for the indicated mutant below about 100 nM)
18 | < 100 nM | < 100 nM | < 100 nM | C=CC(=O)Nc1cc(Nc2ncc(-c3ncco3)c(-c3cn4c5c(cccc35)CCC4)n2)c(OC)cc1N(C)CCN(C)C [Example 62, N-(5-((4-(5,6-dihydro-4H-pyrrolo[3,2,1-ij]quinolin-1-yl)-5-(oxazol-2-yl)pyrimidin-2-yl)amino)-2-((2-(dimethylamino)ethyl)(methyl)amino)-4-methoxyphenyl)acrylamide] | A (IC50 value for the indicated mutant below about 100 nM)
19 | 100 to 500 nM | > 1000 nM | > 1000 nM | C=CC(=O)Nc1cc(Nc2nccc(-c3c(-c4ncccn4)n4c5c(cccc35)CCC4)n2)c(OC)cc1N(C)CCN(C)C [Example 109] | B (IC50 value for the indicated mutant between about 100 to about 500 nM)
